From patent US7612061B2, “Piperazine compounds” (Les Laboratoires Servier, priority 2005, dated 2009) come the findings set out here.

Assay [1] addresses T1, serotonin (5-HTT) reuptake site (Rattus norvegicus, UniProt P31652).
T1 construct: on rat frontal cortex membranes; from tissue; host or cells: rat frontal cortex membranes
As to the kind of experiment: Affinity for serotonin reuptake sites in the rat ([3H]-citalopram competition). It counts as binding. The note with it: rat frontal cortex membranes, 0.7 nM [3H]-citalopram, 2 hours at 25° C.; pKi=-log Ki (Cheng-Prusoff); read-out: pKi r5-HTT (converted). As for the experimental part:
The affinity of the compounds for the serotonin (5-HTT) reuptake site is evaluated by competition experiments with [^3H]-citalopram on rat frontal cortex membranes. The cortices are homogenised using a Polytron in 40 volumes (weight/volume) of cold Tris-HCl (50 mM, pH 7.4) incubation buffer containing 120 mM NaCl and 5 mM KCl and are then centrifuged for a first time. The sediment is resuspended in the same buffer, incubated for 10 minutes at 37° C. and then re-centrifuged. The membranes are washed a further two times and the sediment is then resuspended in an appropriate volume of incubation buffer. The membranes are then incubated for 2 hours at 25° C. with the compound under test in the presence of 0.7 nM [^3H]-citalopram. Non-specific binding is determined with 10 μM fluoxetine. At the end of the incubation period, the samples are filtered through Unifilter GF/B type filters pretreated with PEI (0.5%) and washed several times with the incubation buffer. The radioactivity retained on the filters is counted after addition of scintillation liquid, with the aid of a scintillation counter. The isotherms obtained are analysed by non-linear regression to determine the IC50 values, which are converted into Ki using the Cheng-Prusoff equation: Ki=IC50/(1+L/kD) wherein L represents the concentration of radioligand and kD is the dissociation constant of [^3H]-citalopram on the serotonin reuptake site (0.7 nM). The results are expressed as pKi=−log Ki.

A further assay has as its target T2, human NK1 receptors (Homo sapiens, UniProt P25103).
T2 construct: IM9 human lymphoblast cells endogenously expressing NK1 receptors; endogenous in cells; host or cells: IM9 human lymphoblast cells (whole-cell preparation)
As to the kind of experiment: hNK1 binding ([3H]-Substance P competition on IM9 human lymphoblast cells). The note with it: IM9 human lymphoblast cells endogenously expressing NK1 receptors, 1.5 nM [3H]-Substance P, 90 minutes at ambient temperature; pKi=-log Ki (Cheng-Prusoff). How it is done: The affinity of compounds of the invention was determined by competition experiments in the presence of [^3H]-Substance P (Sar-9, MetO2-11,2-propyl-3,4-3H). IM9 human lymphoblast cells endogenously expressing NK1 receptors are centrifuged and taken up in the incubation buffer containing 50 mM TRIS, 150 mM NaCl, 4 mM CaCl2, protease inhibitors at 1/100^e (Cocktail SIGMA P8340) and 0.2% BSA. The volume of incubation buffer is determined so as to obtain a concentration of 5×10^6 cells/ml. The cell preparation is then incubated together with 1.5 nM [^3H]-Substance P and the compound under test for 90 minutes at ambient temperature. Non-specific binding is determined in the presence of 1 μM GR 205171.
At the end of the incubation period, the samples are filtered through Unifilter GF/B type filters pretreated with PEI (0.1%) and washed several times with the filtration buffer (50 mM TRIS, 150 mM NaCl, 4 mM CaCl2). The radioactivity retained on the filters is measured by counting after addition of scintillation liquid to the filters. The counts are analysed by non-linear regression, allowing the isotherms to be plotted and the IC50 values to be determined. The latter are then converted into inhibition constants (Ki) by means of the Cheng-Prusoff equation: Ki=IC50/(1+L/KD) wherein L is the concentration of [^3H]-Substance P and KD is the dissociation constant of [^3H]-Substance P for human NK1 receptors (0.53 nM). The results are expressed as pKi(−log Ki).

Counter-ions that a name gives are not always drawn.

T2 sequence (P25103 whole entry): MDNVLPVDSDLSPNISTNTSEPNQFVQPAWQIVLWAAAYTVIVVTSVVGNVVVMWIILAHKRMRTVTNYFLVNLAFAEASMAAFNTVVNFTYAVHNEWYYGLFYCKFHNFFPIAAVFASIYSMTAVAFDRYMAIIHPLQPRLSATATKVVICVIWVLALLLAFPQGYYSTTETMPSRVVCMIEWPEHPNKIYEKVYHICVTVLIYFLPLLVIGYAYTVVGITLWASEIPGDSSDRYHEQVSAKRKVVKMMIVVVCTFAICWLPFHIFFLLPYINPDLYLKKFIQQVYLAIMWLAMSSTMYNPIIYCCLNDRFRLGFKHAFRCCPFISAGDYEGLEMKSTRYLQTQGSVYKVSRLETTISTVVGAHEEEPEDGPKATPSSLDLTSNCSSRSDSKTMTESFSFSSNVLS
T1 sequence (P31652 whole entry): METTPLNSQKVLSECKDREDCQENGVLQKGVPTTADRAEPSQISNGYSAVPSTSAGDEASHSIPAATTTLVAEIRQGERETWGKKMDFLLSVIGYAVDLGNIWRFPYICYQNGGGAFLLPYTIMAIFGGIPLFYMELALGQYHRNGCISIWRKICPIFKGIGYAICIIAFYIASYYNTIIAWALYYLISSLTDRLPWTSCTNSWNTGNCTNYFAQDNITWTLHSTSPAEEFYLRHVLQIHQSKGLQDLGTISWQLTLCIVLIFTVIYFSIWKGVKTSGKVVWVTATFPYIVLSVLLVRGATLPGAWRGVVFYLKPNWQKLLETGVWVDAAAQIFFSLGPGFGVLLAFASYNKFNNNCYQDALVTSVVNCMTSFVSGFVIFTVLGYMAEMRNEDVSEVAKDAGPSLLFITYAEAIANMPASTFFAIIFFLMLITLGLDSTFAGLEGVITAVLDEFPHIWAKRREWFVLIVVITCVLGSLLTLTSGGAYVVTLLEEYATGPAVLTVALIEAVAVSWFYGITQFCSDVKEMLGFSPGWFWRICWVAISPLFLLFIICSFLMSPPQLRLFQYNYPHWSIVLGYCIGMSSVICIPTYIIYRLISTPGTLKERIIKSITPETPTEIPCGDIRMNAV

Turning to `Brc1cc(Br)cc(CO[C@@H]2Cc3ccccc3[C@H]2N2CCNCC2)c1` (racemic) [Example 1, trans-1-{2-[(3,5-Dibromobenzyl)oxy]-2,3-dihydro-1H-inden-1-yl}-piperazine dihydrochloride], the Ki in assay [1] is 4.47 nM; at human NK1 receptors, 145 nM.
Regarding `Brc1cc(Br)cc(CO[C@@H]2COc3ccccc3[C@H]2N2CCNCC2)c1` (racemic) [Example 4, trans-1-{3-[(3,5-Dibromobenzyl)oxy]-3,4-dihydro-2H-chromen-4-yl}piperazine dihydrochloride], the Ki in assay [1] was 79.4 nM; on human NK1 receptors, 5.62 nM.
Turning to `Brc1cc(Br)cc(CO[C@@H]2CCc3ccccc3[C@H]2N2CCNCC2)c1` (racemic) [Example 15, trans-1-{2-[(3,5-Dibromobenzyl)oxy]-1,2,3,4-tetrahydronaphth-1-yl}piperazine dihydrochloride], the Ki at human NK1 receptors is 33.1 nM.
The compound `Brc1cc(Br)cc(CO[C@@H]2CCCc3ccccc3[C@H]2N2CCNCC2)c1` (relative stereo) [Example 7, trans-1-{6-[(3,5-Dibromobenzyl)oxy]-6,7,8,9-tetrahydro-5H-benzo-[7]annulen-5-yl}piperazine dihydrochloride] showed a Ki at human NK1 receptors of 7.24 nM.
The compound `Brc1cc(Br)cc(CO[C@@H]2CCOc3ccccc3[C@H]2N2CCNCC2)c1` (relative stereo) [Example 8, trans-1-{4-[(3,5-Dibromobenzyl)oxy]-2,3,4,5-tetrahydro-1-benzoxepin-5-yl}piperazine dihydrochloride] had a Ki on human NK1 receptors of 28.8 nM.
Same read-out and setting: the figure for `NC1CCN([C@@H]2c3ccccc3OC[C@H]2OCc2cc(Br)cc(Br)c2)CC1` (relative stereo) [Example 9, trans-1-{3-[(3,5-Dibromobenzyl)oxy]-3,4-dihydro-2H-chromen-4-yl}piperidin-4-amine dihydrochloride] is 11 nM.
With `COc1ccc2c(c1)CC[C@@H](OCc1cc(Br)cc(Br)c1)[C@@H]2N1CCNCC1` (relative stereo) [Example 13, trans-1-{2-[(3,5-Dibromobenzyl)oxy]-6-methoxy-1,2,3,4-tetrahydro-naphth-1-yl}piperazine dihydrochloride], the Ki on human NK1 receptors is 251 nM.
`FC(F)(F)c1cc(CO[C@@H]2Cc3ccccc3[C@H]2N2CCNCC2)cc(C(F)(F)F)c1` (relative stereo) [Example 40, trans-1-(2-{[3,5-Bis(trifluoromethyl)benzyl]oxy}-2,3-dihydro-1H-inden-1-yl)piperazine dihydrochloride] showed a Ki at human NK1 receptors of 141 nM.
As to `COc1ccc2c(c1)[C@@H](N1CCNCC1)[C@H](OCc1cc(Cl)cc(Cl)c1)C2` (relative stereo) [Example 42, trans-1-{2-[(3,5-Dichlorobenzyl)oxy]-6-methoxy-2,3-dihydro-1H-inden-1-yl}piperazine dihydrochloride], the Ki in assay [1] was 19.5 nM.
`Clc1cc(Cl)cc(CO[C@@H]2COc3ccccc3[C@H]2N2CCNCC2)c1` (relative stereo) [Example 44, trans-1-{3-[(3,5-Dichlorobenzyl)oxy]-3,4-dihydro-2H-chromen-4-yl}-piperazine dihydrochloride]: in assay [1], the Ki was 49 nM.
Turning to `Fc1cc(Cl)cc(CO[C@@H]2COc3ccccc3[C@H]2N2CCNCC2)c1` (relative stereo) [Example 47, trans-1-{3-(3-Chloro-5-fluorobenzyloxy)-3,4-dihydro-2H-chromen-4-yl}piperazine dihydrochloride], the Ki in assay [1] is 35.5 nM.
Turning to `Brc1cc(Br)cc(COC2CCc3ccccc3C2N2CCCNCC2)c1` (single isomer, unassigned; (-)) [Example 19, (−) isomer of trans-1-{2-[(3,5-dibromobenzyl)oxy]-1,2,3,4-tetra-hydronaphth-1-yl}-1,4-diazepane dihydrochloride], the Ki at human NK1 receptors was 39.8 nM.
Take `Brc1cc(Br)cc(CO[C@@H]2Cc3ccccc3[C@@H]2N2CCNCC2)c1` [Example 21, 1-{(1S,2R)-2-[(3,5-Dibromobenzyl)oxy]-2,3-dihydro-1H-inden-1-yl}-piperazine dihydrochloride]: the Ki in assay [1] was 12.3 nM.
For `Fc1cc(F)cc(CO[C@@H]2Cc3ccccc3[C@@H]2N2CCNCC2)c1` [Example 36, 1-[(1S,2R)-2-[(3,5-Difluorobenzyl)oxy]-2,3-dihydro-1H-inden-1-yl]-piperazine dihydrochloride], the Ki in assay [1] is 1.07 nM.
As to `Cc1cc(C)cc(CO[C@@H]2Cc3ccccc3[C@@H]2N2CCNCC2)c1` [Example 38, 1-[(1S,2R)-2-[(3,5-Dimethylbenzyl)oxy]-2,3-dihydro-1H-inden-1-yl]-piperazine dihydrochloride], the Ki in assay [1] is 1.86 nM.
